Test results published in US20220242870A1, “HETEROCYCLE-FUSED PYRIMIDINE DERIVATIVE AND USE THEREOF” (VORONOI Inc., priority 2019, published 2022).

Tests used:
MV4-11 cells = assay: AML cell proliferation inhibitory activity (CellTiter-Glo); format: cell-based; conditions: Homo sapiens, 72 hours
Experimental: The inhibitory activities of the example compounds according to the present invention on the proliferation of acute myeloid leukemia (AML) cells expressing the FLT3 mutant gene were evaluated. Specifically, RS4;11 and MV4-11 cells as acute myeloid leukemia cells expressing the FLT3 mutant gene were cultured in RPMI-1640 (Invitrogen) adding 10% FBS. The cells were seeded into each well of a clear bottom white 96-well plate (Corning) at 3000 to 5000 cells 24 hours before compound treatment. The compound was diluted in DMSO (diluted each three-fold, to a total of 12 concentrations) and injected at 0.5 μL each so as to be a final concentration of 0.3 nM to 50 μM. After 72 hours of the compound treatment, they were treated with CellTiter-Glo Luminescent Cell Viability assay (Promega) and stored at room temperature for 10 minutes, and luminescence intensities were measured with a reader (SynergyNeo, Biotek) to count viable cells. Each experiment was performed three times repeatedly. The result values were calculated as the cell growth rate (%) compared to the control treated with the solvent. The graph was derived using the GraphPad Prism program (version 5.0), the GI50 (nM) values were calculated, and the results were shown in Table 3 below.

human GST-HPK1 (1-346) = biological target: T1, human GST-HPK1 (1-346) (Homo sapiens, UniProt Q92918); assay: HPK1 enzyme inhibitory ability (ADP-Glo kinase assay); format: biochemical; conditions: human GST-HPK1 3 ng, ATP 3 uM, 25° C. 2 hours
T1 construct: purified human GST-HPK1 (1-346, Signalchem) enzyme; purchased Signalchem
T1 sequence (Q92918 1-346): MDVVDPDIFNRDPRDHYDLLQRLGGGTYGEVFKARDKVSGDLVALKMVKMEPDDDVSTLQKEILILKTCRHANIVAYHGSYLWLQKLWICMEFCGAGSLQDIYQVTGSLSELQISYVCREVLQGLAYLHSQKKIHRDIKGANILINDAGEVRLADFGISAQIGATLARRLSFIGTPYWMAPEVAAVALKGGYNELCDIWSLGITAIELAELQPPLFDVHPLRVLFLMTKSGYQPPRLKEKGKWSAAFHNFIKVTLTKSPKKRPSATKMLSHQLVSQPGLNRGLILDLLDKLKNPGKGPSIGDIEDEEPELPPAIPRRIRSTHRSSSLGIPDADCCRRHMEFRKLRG
Summary of the method: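 Human GST-HPK1(1-346), 3 ng, reacted with 3 uM ATP and specific substrate in 40 mM Tris-HCl pH 7.4, 20 mM MgCl2, 0.5 mg/mL BSA, 50 uM DTT for 2 h at 25° C. ADP-Glo luminescence read; IC50 (nM) relative to untreated solvent control.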

human FLT3-ITD enzyme = biological target: T2, human FLT3-ITD enzyme (Homo sapiens, UniProt P36888); assay: FLT3 enzyme inhibitory ability (ADP-Glo kinase assay); format: biochemical; conditions: human FLT3-ITD enzyme 10 ng, ATP 10 μM, 25° C. 1 hour
T2 sequence (P36888 1-993): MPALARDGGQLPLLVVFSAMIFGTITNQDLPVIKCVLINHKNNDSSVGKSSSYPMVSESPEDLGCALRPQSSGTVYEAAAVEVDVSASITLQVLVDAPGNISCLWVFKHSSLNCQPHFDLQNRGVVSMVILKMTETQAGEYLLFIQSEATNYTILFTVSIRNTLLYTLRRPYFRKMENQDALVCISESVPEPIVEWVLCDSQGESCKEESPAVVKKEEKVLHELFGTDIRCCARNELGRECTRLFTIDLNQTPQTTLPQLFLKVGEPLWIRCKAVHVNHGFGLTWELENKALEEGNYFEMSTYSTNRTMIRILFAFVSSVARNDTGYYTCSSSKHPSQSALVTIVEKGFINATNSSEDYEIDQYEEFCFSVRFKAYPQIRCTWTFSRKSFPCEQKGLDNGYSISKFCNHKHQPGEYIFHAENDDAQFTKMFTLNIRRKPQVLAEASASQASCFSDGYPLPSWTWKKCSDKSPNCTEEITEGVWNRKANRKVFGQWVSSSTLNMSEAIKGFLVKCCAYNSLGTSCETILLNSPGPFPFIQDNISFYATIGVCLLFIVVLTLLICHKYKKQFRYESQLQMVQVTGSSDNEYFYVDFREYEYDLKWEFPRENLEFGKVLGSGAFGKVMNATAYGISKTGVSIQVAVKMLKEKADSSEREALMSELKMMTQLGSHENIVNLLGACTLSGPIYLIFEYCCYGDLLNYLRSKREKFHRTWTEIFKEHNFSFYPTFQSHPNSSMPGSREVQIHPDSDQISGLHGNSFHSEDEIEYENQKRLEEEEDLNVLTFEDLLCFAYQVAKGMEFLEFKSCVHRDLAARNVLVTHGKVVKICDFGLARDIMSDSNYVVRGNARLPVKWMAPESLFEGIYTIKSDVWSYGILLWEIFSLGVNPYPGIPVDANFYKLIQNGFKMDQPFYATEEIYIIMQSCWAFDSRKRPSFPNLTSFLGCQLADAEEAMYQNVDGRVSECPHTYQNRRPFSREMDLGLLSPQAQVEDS
Summary of the method: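 Purified human FLT3-ITD (10 ng) with 10 μM ATP and specific substrate in 40 mM Tris-HCl pH 7.4, 20 mM MgCl2, 0.5 mg/mL BSA, 50 μM DTT, 1 h at 25 °C. ADP formation read by ADP-Glo luminescence; IC50 (nM) versus solvent-treated control.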

MCF-7 cells = assay: Breast cancer cell line proliferation inhibitory activity (CellTiter-Glo 2.0); format: cell-based; conditions: Homo sapiens, MCF7, 120 hours
Summary of the method: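 MCF-7 cells exposed to a 12-point, 3-fold dilution series (final 0.00005–10 μM) for 120 h at 37 °C. Viability read by CellTiter-Glo 2.0 luminescence, expressed as percent of vehicle-treated cells. GI50 (nM) derived from the curves.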

GI50 (MV4-11 cells) [nM]	IC50 (human GST-HPK1 (1-346)) [nM]	IC50 (human FLT3-ITD enzyme) [nM]	GI50 (MCF-7 cells) [nM]	Compound
> 500	≥ 250	≥ 250	> 500	c1ccc([C@@H]2CCON2c2nc(Nc3ccc4c(c3)CNCC4)nc3[nH]ccc23)cc1 [Example 104, (S)-N-(4-(3-phenylisoxazolidin-2-yl)-7H-pyrrolo[2,3-d]pyrimidin-2-yl)-1,2,3,4-tetrahydroisoquinolin-7-amine]
250 to 500	≥ 250	≥ 250	> 500	CN1CCc2ccc(Nc3nc(N4OCC[C@H]4c4ccccc4)c4cc[nH]c4n3)cc2C1 [Example 105, (S)-2-methyl-N-(4-(3-phenylisoxazolidin-2-yl)-7H-pyrrolo[2,3-d]pyrimidin-2-yl)-1,2,3,4-tetrahydroisoquinolin-7-amine]
> 500	> 500	> 500	> 500	COc1cc(N2CCN(C)CC2)ccc1Nc1nc(N2N=CCC2c2ccccc2)c2sccc2n1 (stereo not shown) [Example 6, N-(2-methoxy-4-(4-methylpiperazin-1-yl)phenyl)-4-(5-phenyl-4,5-dihydro-1H-pyrazol-1-yl)thieno[3,2-d]pyrimidin-2-amine]
250 to 500	≥ 250	≥ 250	> 500	CN1CCN(c2ccc(Nc3nc(N4OCC[C@H]4c4cccs4)c4cc[nH]c4n3)cc2)CC1 [Example 77, (S)-N-(4-(4-methylpiperazin-1-yl)phenyl)-4-(3-(thiophen-2-yl)isoxazolidin-2-yl)-7H-pyrrolo[2,3-d]pyrimidin-2-amine]
≥ 250	≥ 250	≥ 250	> 500	CN(C)C1CCN(c2ccc(Nc3nc(N4OCC[C@H]4c4ccccc4)c4cc[nH]c4n3)cc2)CC1 [Example 83, (S)-N-(4-(4-(dimethylamino)piperidin-1-yl)phenyl)-4-(3-phenylisoxazolidin-2-yl)-7H-pyrrolo[2,3-d]pyrimidin-2-amine]
≥ 250	≥ 250	≥ 250	> 500	CN1CCc2cc(Nc3nc(N4OCC[C@H]4c4ccccc4)c4cc[nH]c4n3)ccc2C1 [Example 109, (S)-2-methyl-N-(4-(3-phenylisoxazolidin-2-yl)-7H-pyrrolo[2,3-d]pyrimidin-2-yl)-1,2,3,4-tetrahydroisoquinolin-6-amine]
> 500	> 500	> 500	> 500	CCc1cc(Nc2nc(N3N=CCC3c3ccccc3)c3sccc3n2)cc(OCCN2CCC(O)CC2)c1 (stereo not shown) [Example 16, 1-(2-(3-ethyl-5-((4-(5-phenyl-4,5-dihydro-1H-pyrazol-1-yl)thieno[3,2-d]pyrimidin-2-yl)amino)phenoxy)ethyl)piperidin-4-ol]
> 500	≥ 250	≥ 250	≥ 250	Clc1c[nH]c2nc(Nc3ccc4c(c3)CCNC4)nc(N3OCC[C@H]3c3ccccc3)c12 [Example 117, (S)-N-(5-chloro-4-(3-phenylisoxazolidin-2-yl)-7H-pyrrolo[2,3-d]pyrimidin-2-yl)-1,2,3,4-tetrahydroisoquinolin-6-amine]
> 500	> 500	250 to 500	> 500	COc1cccc([C@@H]2CCON2c2nc(Nc3ccc(N4CCN(C)CC4)cc3)nc3[nH]ccc23)c1 [Example 75, (S)-4-(3-(3-methoxyphenyl)isoxazolidin-2-yl)-N-(4-(4-methylpiperazin-1-yl)phenyl)-7H-pyrrolo[2,3-d]pyrimidin-2-amine]
≥ 250	≥ 250	250 to 500	> 500	CC(C)(O)CN1CCc2cc(Nc3nc(N4OCC[C@H]4c4ccccc4)c4cc[nH]c4n3)ccc2C1 [Example 111, (S)-2-methyl-1-(6-((4-(3-phenylisoxazolidin-2-yl)-7H-pyrrolo[2,3-d]pyrimidin-2-yl)amino)-3,4-dihydroisoquinolin-2(1H)-yl)propan-2-ol]
